Our source for the IC50 values is patent US10793564B2, “Amino acid compounds and methods of use” (Pliant Therapeutics, Inc., priority 2018, dated 2020).

SMILES strings stand for the structures. Where only a bound is given, the exact number is not on record here.

Sequence of recombinant human integrin αVβ6 (P06756 31-992): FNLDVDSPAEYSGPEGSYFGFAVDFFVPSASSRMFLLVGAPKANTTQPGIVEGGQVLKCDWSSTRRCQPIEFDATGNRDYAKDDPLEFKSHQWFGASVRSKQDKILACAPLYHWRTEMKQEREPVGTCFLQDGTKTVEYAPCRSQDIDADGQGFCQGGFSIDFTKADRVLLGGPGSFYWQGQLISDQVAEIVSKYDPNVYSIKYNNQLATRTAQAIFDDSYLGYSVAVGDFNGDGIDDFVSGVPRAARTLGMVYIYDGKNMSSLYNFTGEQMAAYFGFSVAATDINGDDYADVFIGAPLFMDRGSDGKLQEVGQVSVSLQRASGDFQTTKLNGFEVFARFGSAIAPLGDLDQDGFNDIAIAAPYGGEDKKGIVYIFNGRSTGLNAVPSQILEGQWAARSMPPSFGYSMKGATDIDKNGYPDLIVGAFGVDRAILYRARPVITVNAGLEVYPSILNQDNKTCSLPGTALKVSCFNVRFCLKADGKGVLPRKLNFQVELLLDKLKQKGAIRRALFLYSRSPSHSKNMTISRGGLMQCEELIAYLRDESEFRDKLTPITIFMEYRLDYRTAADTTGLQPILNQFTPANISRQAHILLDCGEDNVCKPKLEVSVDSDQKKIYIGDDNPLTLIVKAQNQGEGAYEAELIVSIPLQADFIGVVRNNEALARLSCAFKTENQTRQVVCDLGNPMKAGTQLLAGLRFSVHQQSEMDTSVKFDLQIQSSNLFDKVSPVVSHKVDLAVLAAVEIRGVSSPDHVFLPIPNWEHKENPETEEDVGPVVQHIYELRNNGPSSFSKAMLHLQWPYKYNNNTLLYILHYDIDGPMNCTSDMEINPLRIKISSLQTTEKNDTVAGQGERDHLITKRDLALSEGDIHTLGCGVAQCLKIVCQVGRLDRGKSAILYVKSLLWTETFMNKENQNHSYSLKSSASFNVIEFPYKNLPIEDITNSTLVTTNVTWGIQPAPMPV
Sequence of recombinant human integrin αVβ6 (P18564 22-707): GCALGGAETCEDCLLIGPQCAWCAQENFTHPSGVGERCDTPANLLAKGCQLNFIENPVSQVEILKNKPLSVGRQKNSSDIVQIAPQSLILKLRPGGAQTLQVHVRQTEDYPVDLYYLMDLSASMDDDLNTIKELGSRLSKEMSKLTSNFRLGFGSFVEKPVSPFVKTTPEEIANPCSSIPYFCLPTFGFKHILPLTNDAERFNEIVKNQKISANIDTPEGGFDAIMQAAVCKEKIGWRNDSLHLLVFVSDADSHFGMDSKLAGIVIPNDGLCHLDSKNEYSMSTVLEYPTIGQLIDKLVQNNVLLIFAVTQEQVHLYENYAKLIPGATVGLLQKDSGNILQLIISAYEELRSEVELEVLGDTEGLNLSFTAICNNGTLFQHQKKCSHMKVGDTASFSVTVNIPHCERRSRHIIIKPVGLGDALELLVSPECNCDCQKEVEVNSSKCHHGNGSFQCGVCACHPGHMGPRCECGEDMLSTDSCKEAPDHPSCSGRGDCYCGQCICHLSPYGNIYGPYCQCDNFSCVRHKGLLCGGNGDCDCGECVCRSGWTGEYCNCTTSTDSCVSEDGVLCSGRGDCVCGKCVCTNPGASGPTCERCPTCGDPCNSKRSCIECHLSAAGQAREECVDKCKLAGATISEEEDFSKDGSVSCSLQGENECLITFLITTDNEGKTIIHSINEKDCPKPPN

The target of this assay is recombinant human integrin αVβ6 (Homo sapiens (Human), UniProt P06756+P18564). Put plainly: Solid phase integrin αVβ6 binding assay. Conditions: inhibition of recombinant TGFβ1 LAP binding to coated integrin, IC50 presented in four ranges, read-out: αvβ6 Inhibition IC50 (nM) - range. The method, then:
(§1) Microplates were coated with recombinant human integrin αVβ6 (2 μg/mL) in PBS (100 μL/well 25° C., overnight). The coating solution was removed, washed with wash buffer (0.05% Tween 20; 0.5 mM MnCl2; in 1×TBS). The plate was blocked with 200 μL/well of Block Buffer (1% BSA; 5% sucrose; 0.5 mM MnCl2; in 1×TBS) at 37° C. for 2 h. Dilutions of testing compounds and recombinant TGFβ1 LAP (0.67 μg/mL) in binding buffer (0.05% BSA; 2.5% sucrose; 0.5 mM MnCl2; in 1×TBS) were added. The plate was incubated for 2 hours at 25° C., washed, and incubated for 1 hour with Biotin-Anti-hLAP. Bound antibody was detected by peroxidase-conjugated streptavidin. The IC50 values for testing compounds were calculated by a four-parameter logistic regression.
The compounds tested were compound samples prepared according to procedures described in the Synthetic Examples section, with the stereochemical purity as indicated in the Examples.
as §1, with “A third series of exemplary compounds was selected for testing in the solid phase integrin αVβ6 binding assay. The compounds tested were compound samples prepared according to procedures described in the Synthetic Examples section, with the stereochemical purity as indicated in the Examples. As in Example B1, microplates were” for “Microplates were”, “(0.67 g/mL)” for “(0.67 μg/mL)”
On to `CS(=O)(=O)CCN(CCCCc1ccc2c(n1)NCCC2)CC[C@H](Nc1ncnc2ccccc12)C(=O)O` [Compound 27, (S)-4-((2-(methylsulfonyl)ethyl) (4-(5,6,7,8-tetrahydro-1,8-naphthyridin-2-yl)butyl)amino)-2-(quinazolin-4-ylamino) butanoic Acid], for which the IC50 was less than 50 nM.
In the case of `O=C(O)[C@H](CCN(CCCCc1ccc2c(n1)NCCC2)CCOc1ccccc1)Nc1ncnc2ccccc12` [Compound 28, (S)-4-((2-phenoxyethyl) (4-(5,6,7,8-tetrahydro-1,8-naphthyridin-2-yl)butyl)amino)-2-(quinazolin-4-ylamino) butanoic Acid], the IC50 was less than 50 nM.
Turning to `O=C(O)[C@H](CCN(CCCCc1ccc2c(n1)NCCC2)CCC(F)F)Nc1ncnc2ccccc12` [Compound 29, (S)-4-((3,3-difluoropropyl) (4-(5,6,7,8-tetrahydro-1,8-naphthyridin-2-yl)butyl)amino)-2-(quinazolin-4-ylamino) butanoic Acid], the concentration for half-maximal inhibition (IC50) is less than 50 nM.
For the molecule `O=C(O)[C@H](CCN(CCCF)CCCCc1ccc2c(n1)NCCC2)Nc1ncnc2ccccc12` [Compound 30, (S)-4-((3-fluoropropyl) (4-(5,6,7,8-tetrahydro-1,8-naphthyridin-2-yl)butyl)amino)-2-(quinazolin-4-ylamino) butanoic Acid], the IC50 is less than 50 nM.
As to `COC[C@@H](F)CN(CCCCc1ccc2c(n1)NCCC2)CC[C@H](Nc1ncnc2ccccc12)C(=O)O` [Compound 31, (S)-4-(((S)-2-fluoro-3-methoxypropyl) (4-(5,6,7,8-tetrahydro-1,8-naphthyridin-2-yl)butyl)amino)-2-(quinazolin-4-ylamino) butanoic Acid], the IC50 is less than 50 nM.
Consider `COC[C@@H](F)CN(CCCCc1ccc2c(n1)NCCC2)CC[C@H](Nc1nc(C)nc2cc(F)ccc12)C(=O)O` [Compound 32, (S)-2-((7-fluoro-2-methylquinazolin-4-yl)amino)-4-(((S)-2-fluoro-3-methoxypropyl) (4-(5,6,7,8-tetrahydro-1,8-naphthyridin-2-yl)butyl)amino) butanoic Acid], for which the IC50 is less than 50 nM.
The same measure for `Cc1nc(N[C@@H](CCN(CCCCc2ccc3c(n2)NCCC3)CC2CC(F)(F)C2)C(=O)O)c2ccc(F)cc2n1` [Compound 33, (S)-4-(((3,3-difluorocyclobutyl)methyl) (4-(5,6,7,8-tetrahydro-1,8-naphthyridin-2-yl)butyl)amino)-2-((7-fluoro-2-methylquinazolin-4-yl)amino) butanoic Acid]: less than 50 nM; for `COCCN(CCCCc1ccc2c(n1)NCCC2)CC[C@H](Nc1nccc2ccccc12)C(=O)O` [Compound 34, (S)-2-(isoquinolin-1-ylamino)-4-((2-methoxyethyl) (4-(5,6,7,8-tetrahydro-1,8-naphthyridin-2-yl)butyl)amino) butanoic Acid]: more than 1000 nM.
With `O=C(O)[C@H](CCN(CCCCc1ccc2c(n1)NCCC2)CCOC(F)F)Nc1ncnc2ccccc12` [Compound 35, (S)-4-((2-(difluoromethoxy)ethyl) (4-(5,6,7,8-tetrahydro-1,8-naphthyridin-2-yl)butyl)amino)-2-(quinazolin-4-ylamino) butanoic Acid], the IC50 is less than 50 nM.
As for `COCCN(CCCCc1ccc2c(n1)NCCC2)CC[C@H](Nc1ccnc2ccccc12)C(=O)O` [Compound 36, (S)-4-((2-methoxyethyl) (4-(5,6,7,8-tetrahydro-1,8-naphthyridin-2-yl)butyl)amino)-2-(quinolin-4-ylamino) butanoic Acid], the figure is more than 1000 nM.
For `COCCN(CCCCc1ccc2c(n1)NCCC2)CC[C@H](Nc1ncnc2cc(Cl)ccc12)C(=O)O` [Compound 37, (S)-2-((7-chloroquinazolin-4-yl)amino)-4-((2-methoxyethyl) (4-(5,6,7,8-tetrahydro-1,8-naphthyridin-2-yl)butyl)amino) butanoic Acid], the IC50 fell in the range of 50 to 250 nM.

Broadly, the IC50 is the concentration that inhibits the measured activity by half.
